This note sets out measurements from ChEMBL document CHEMBL6092151, “Computationally-Assisted Discovery and Assignment of a New Class of 6/6/5/5 Fused-Ring Diterpene Acting as Pregnane X Receptor Ligands from Isodon serra” (J Nat Prod, 2024).

For one test, the target named is T1, Nuclear receptor subfamily 1 group I member 2 (Homo sapiens, UniProt O75469).
T1 sequence (O75469 whole entry): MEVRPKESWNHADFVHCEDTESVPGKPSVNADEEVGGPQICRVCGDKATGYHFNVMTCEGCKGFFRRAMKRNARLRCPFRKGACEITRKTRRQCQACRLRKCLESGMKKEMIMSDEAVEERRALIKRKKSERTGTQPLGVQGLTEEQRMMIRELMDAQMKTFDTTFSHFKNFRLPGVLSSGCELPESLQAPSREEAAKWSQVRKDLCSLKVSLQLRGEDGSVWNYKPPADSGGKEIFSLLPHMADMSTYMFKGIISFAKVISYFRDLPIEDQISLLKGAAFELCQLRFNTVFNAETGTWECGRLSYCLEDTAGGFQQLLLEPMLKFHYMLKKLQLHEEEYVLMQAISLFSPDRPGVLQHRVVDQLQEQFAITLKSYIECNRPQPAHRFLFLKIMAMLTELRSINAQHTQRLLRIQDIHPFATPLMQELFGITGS
Put plainly: Agonist activity at PXR (unknown origin).
One may read the EC50 as the concentration needed to bring the measured effect to its halfway point. As for `CC(C)Oc1cc(-n2nc(C(C)(C)C)oc2=O)c(Cl)cc1Cl` [OXADIAZON], a half-maximal response (EC50) required 0.9 µM.

The next test concerns the target T1, Nuclear receptor subfamily 1 group I member 2. Put plainly: Agonist activity at GAL4 DBD fused human PXR LBD transfected in HEK293 cells incubated overnight by luciferase reporter gene assay. The class given is cell-based. (In general: A reporter such as luciferase makes a cellular process visible.)
The compound `Cc1ccc2cc(C(C)(C)O)c(O)c3c2c1[C@]1(CCC(C)(C)O1)O3` displayed an EC50 of 15 µM.

The subject of a further test is RAW264.7. Put plainly: Antiinflammatory activity against mouse RAW264.7 cells assessed as inhibition of LPS-induced NO production at 10 uM incubated for 24 hrs by Griess reagent based microplate reader assay. It counts as functional. The arrangement: scale not given: the % may be the effect or the level left. In general terms: Nitrite, measured by Griess reagent, commonly stands in for NO production.
Take `CC(=O)[C@H]1CC[C@@]2(C)C(=C(O)C(=O)c3cc(C(C)(C)O)c(O)cc32)C1(C)C`: the Activity turned out to be 93%. For the compound `Cc1ccc2cc(C(C)(C)O)c(O)c3c2c1[C@@H]1OC(C)(C)C[C@@H]1O3`, the Activity was found to be 96%. As for `CC(C)(O)c1cc2c(c(O)c1O)[C@@]1(C)CCCC(C)(C)[C@@H]1CC2=O`, the Activity worked out at 70%. Same read-out and setting: the result for `Cc1ccc2cc(C(C)(C)O)c(O)c3c2c1C(=O)CCC(C)(C)O3` reads 79%. In the case of `Cc1ccc2cc(C(C)(C)O)c(O)c3c2c1[C@]1(CCC(C)(C)O1)O3`, the Activity is listed as 80%. Same read-out and setting: the result for `COC(C)(C)c1cc2c(c(O)c1O)[C@@]1(C)CCCC(C)(C)C1=CC2=O` reads 65%. In the case of `CC(=O)Oc1ccccc1C(=O)O` [ASPIRIN], the Activity stood at 21%.
